In patent publication US7645882B2, “Inhibitor of protein modification products formation” (priority 2003, dated 2010):

How the values were obtained:
SHR/NDmcr-cp rats = experiment: In vivo endoplasmic reticula stress alleviation, anti-ORP150 immunostaining of kidney; design: species or system rat; details: 100 mg/1 kg body weight by diet, 33 weeks aged
Experimental: Endoplasmic reticula stress alleviation effect by TM-2002 was examined using SHR/NDmcr-cp (Disease Model Cooperative Research Association) rats, which have been known their high blood pressure, hyperglycemia, hyperlipemia, obesity and hyperinsulinemia and renal function disorder while aging, and immunostained utilizing anti-ORP150 antibody. The stained section samples which were used for staining were prepared as following manner; SHR/NDmcr-cp rats which were administered the desired amount of test compound TM-2002 (dose: 100 mg/1 kg body weight) by diet (30 g daily), the rats which were administered no drug and SHR (hypertension) rats and Wistar Kyoto rats (control); kidney tissues of each rat were obtained after the end of drug administration period (33 weeks aged); all of tissues were fixed by Carnoy and embedded in paraffin. The staining of each samples was carried out by Catalyzed Sifnal Amplification(CSA) System (DAKO) according to their protocol. […] The samples were observed by microscopic visualization with optical microscope (Olympus) and analyzed the result. […]

[1] = tested on: Thy-1 nephritis model rat; experiment: Renal protective effect on Thy-1 nephritis model rat; assay type: in vivo; details: 50 mg/kg twice daily by sonde, 5 days
Experimental: 1.2 mg/kg of OX-7, anti Thy-1 antibody, was administered to wistar rat (male, body weight 150 g, 6 weeks aged) in caudal vein to prepare typical glomerulonephritis model with mesangial nephritis. After the administration of anti Thy-1 antibody, test compound (TM-2002, 50 mg/kg body weight, twice a daily) was suspended in 0.5% carboxymethylcellulose, was coercively administered 5 days continuously using sonde, on sixth day sampled, kidney was obtained, and analysed pathologically (count the number of glomerular cells). In particular, cells were stained by PAS according to conventional method, the stained image was captured by 3CCD camera (Olympus), and then analyzed using softwares, Image Graver PCI (FUJI shashin film) and Mac Aspect (Mitani kabushiki kaisha). Also, biochemical analysis of blood and urine was carried out (contract clinical analysis organization: SRL).

Cc1ncc2c(c1O)C(c1c(C)nn(-c3ccccc3)c1O)OC2 (stereo not shown) [compound 68, 1-(5-hydroxy-3-methyl-1-phenyl-1H-pyrazol-4-yl)-6-methyl-1,3-dihydro-furo[3,4-c]pyridin-7-ol]
ORP150 positive staining site / ER stress in kidney (SHR/NDmcr-cp rats): decrease of positive staining site and suppressing ER stress
BUN value ([1]; sampled on sixth day): improved
urinary protein ([1]; sampled on sixth day): improved
number of glomerular cells ([1]; p<0.0001): significantly suppressed
